Data on 38 compounds can be found in patent US9340577B2, “HLA binding motifs and peptides and their uses” (priority 1992, dated 2016).

No end group written: not given here.

Among the targets are HLA-A*0201 (HLA-A2.1) (Homo sapiens, UniProt P04439, D140Y/D185E/D98H/E176V/E277Q/G131W/G231S/I119V/I121R/I166T/I218V/L300P/L318F/N151K/N90K/P208A/P217A/Q86G/Q94H/R138H/R169H/T345S); A*0203 (Homo sapiens, UniProt P04439, A173T/D140Y/D185E/D98H/E277Q/G131W/G231S/I119V/I121R/I166T/I218V/L180W/L300P/L318F/N151K/N90K/P208A/P217A/Q86G/Q94H/R138H/R169H/T345S); A*0206 (Homo sapiens, UniProt P04439, D140Y/D185E/D98H/E176V/E277Q/F33Y/G131W/G231S/I119V/I121R/I166T/I218V/L300P/L318F/N151K/N90K/P208A/P217A/Q86G/Q94H/R138H/R169H/T345S); A*6802 (Homo sapiens, UniProt P04439, A269V/D140Y/D185E/E176V/E277Q/E87N/F33Y/G231S/I121R/I166T/I218V/L180W/L300P/L318F/N151K/P208A/P217A/Q86R/R138H/R169H/S129P/T345S/V36M); A*0202 (Homo sapiens, UniProt P04439, D140Y/D185E/D98H/E176V/E277Q/G131W/G231S/I119L/I121R/I166T/I218V/L180W/L300P/L318F/N151K/N90K/P208A/P217A/Q67R/Q86G/Q94H/R138H/R169H/T345S).

Holding throughout (experiment): biochemical
Assay type in all cases: binding

On to WLRLLLTASLL [Peptide 9013.0254], for which the IC50 against HLA-A*0201 (HLA-A2.1) is 3480 nM; on A*0203, 12 nM; against A*0206, 11800 nM; against A*6802, greater than 20000 nM.
The like results for TLVLFIAKI [Peptide 9013.0106] were, in that order, 16600 nM, 21 nM, 29 nM and 13000 nM.
In the case of SLPVSPRLQV [Peptide 9013.0222], the IC50 at HLA-A*0201 (HLA-A2.1) is 7310 nM; at A*0203, 155 nM; against A*0206, greater than 20000 nM; against A*6802, greater than 20000 nM.
For the compound LIQPYSIYA [Peptide 86.0202], the IC50 on HLA-A*0201 (HLA-A2.1) was 1400 nM; on A*0203, 2110 nM; against A*0206, 428 nM; on A*6802 it was 3300 nM.
Turning to TQVLFIAKV [Peptide 9013.0105], the IC50 against HLA-A*0201 (HLA-A2.1) came out at 1040 nM; against A*0203, 27 nM; against A*0206, 46 nM.
On to KVTIESTPFNV [Peptide 9013.0265], for which the IC50 against HLA-A*0201 (HLA-A2.1) is 2580 nM; on A*0203 it was 40 nM; at A*0206, 93 nM; against A*6802, 1550 nM.
With RLQLSNGNRV [Peptide 9013.0224], the IC50 against HLA-A*0201 (HLA-A2.1) is 17600 nM; at A*0203, 669 nM; on A*0206, greater than 20000 nM; against A*6802, greater than 20000 nM.
With ILIGVLVGVAL [Peptide 9013.0347], the IC50 on HLA-A*0201 (HLA-A2.1) was 1520 nM; against A*0203 it was 1010 nM; on A*0206 it was 120 nM; at A*6802 it was greater than 20000 nM.
In the same order, the values of ILNIIQNDT [Peptide 9013.0033] are greater than 20000 nM, 8010 nM, greater than 20000 nM and greater than 20000 nM.
As to YTLHVIKSDV [Peptide 9013.0151], the IC50 on HLA-A*0201 (HLA-A2.1) was found to be 4370 nM; on A*0203 it was 972 nM; at A*0206, 54 nM; at A*6802 it was 16 nM.
In the same order, the values of TQELFIPNV [Peptide 9013.0059] are 308 nM, 3320 nM, 55 nM and 4930 nM.
KLLEKLLCI [Peptide 1578.15]: the IC50 was 15 nM against A*0203, 51 nM at A*0206 and greater than 20000 nM against A*6802.
Regarding RVLQQLLFI [Peptide 1545.01], the IC50 turned out to be 27 nM at HLA-A*0201 (HLA-A2.1), 24 nM on A*0203, 8.5 nM against A*0206 and 10600 nM against A*6802.
The like results for RTLQQLLFA [Peptide 1525.18] were, in that order, 948 nM, 394 nM, 18 nM and greater than 20000 nM.
With ELLLLVHNL [Peptide 9013.0022], the IC50 against A*0202 is 1880 nM; on A*0203, greater than 20000 nM; against A*0206 it was 7180 nM.
As to NLLYGPDDPTI [Peptide 9013.0310], the IC50 is 9880 nM against HLA-A*0201 (HLA-A2.1), 8650 nM on A*0203, greater than 20000 nM against A*0206 and greater than 20000 nM against A*6802.
As for VLFTCEPET [Peptide 9013.0045], the IC50 against HLA-A*0201 (HLA-A2.1) is 2540 nM; against A*0203, 502 nM; at A*0206, greater than 20000 nM; at A*6802, greater than 20000 nM.
For the compound `CC[C@H](C)[C@H](NC(=O)CN)C(=O)N[C@@H](CCSC)C(=O)N[C@H](C(=O)NCC(=O)N[C@H](C(=O)N[C@@H](CC(C)C)C(=O)N[C@H](C(=O)NCC(=O)N[C@H](C(=O)N[C@H](C(=O)O)C(C)C)C(C)C)C(C)C)C(C)C)[C@@H](C)CC` [Peptide 9013.0344], the IC50 on HLA-A*0201 (HLA-A2.1) was 563 nM; at A*0203 it was 82 nM; at A*0206, 912 nM.
On to TVELFIPNITV [Peptide 9013.0300], for which the IC50 was 8210 nM at HLA-A*0201 (HLA-A2.1), greater than 20000 nM on A*0203, 1640 nM on A*0206 and 193 nM against A*6802.
With YVCGIQNSVSV [Peptide 9013.0337], the IC50 against A*0203 amounted to 159 nM; at A*0206, 58 nM.
On to WLRLLLTASL [Peptide 9013.0116], for which the IC50 is 8820 nM against HLA-A*0201 (HLA-A2.1), 32 nM on A*0203, 17400 nM at A*0206 and 19800 nM at A*6802.
The like results for QLSNGNRTV [Peptide 9013.0095] were, in that order, 15100 nM, 54 nM, greater than 20000 nM and greater than 20000 nM.
The like results for WQRLLLTASV [Peptide 9013.0115] were, in that order, 5110 nM, 36 nM, 2230 nM and greater than 20000 nM.
For the compound FLKGCIISYV [Peptide 1578.43], the IC50 is 341 nM against HLA-A*0201 (HLA-A2.1), 0.85 nM at A*0202, 2 nM against A*0203 and 795 nM on A*6802.
As for SLLTFWNPPV [Peptide 9013.0118], the IC50 against HLA-A*0201 (HLA-A2.1) worked out at 208 nM; against A*0202, 76 nM; on A*0203 it was 159 nM; against A*6802 it was 24 nM.
Consider TLELFIPNI [Peptide 9013.0060], for which the figures for the IC50 at HLA-A*0201 (HLA-A2.1), against A*0203 and at A*0206 were 29 nM, 398 nM and 84 nM, respectively.
Consider TIESTPFNVV [Peptide 9013.0130], for which the IC50 worked out at 15600 nM on HLA-A*0201 (HLA-A2.1), 671 nM against A*0203, 3230 nM at A*0206 and 305 nM on A*6802.
In the same order, the values of VLAEAMSAA [Peptide 1516.11] are 24 nM, 0.87 nM, 10 nM and 474 nM.
On to ILYPNASLL [Peptide 9013.0030], for which the IC50 at HLA-A*0201 (HLA-A2.1) turned out to be 130 nM; against A*0202 it was 1.8 nM; at A*0203, 4.2 nM; against A*6802 it was 14700 nM.
In the same order, the values of LQLSNDNRV [Peptide 9013.0072] are greater than 20000 nM, 1700 nM, greater than 20000 nM and greater than 20000 nM.
The like results for KLTPLCVIL [Peptide 1516.15] were, in that order, 356 nM, 74 nM, 968 nM and greater than 20000 nM.
In the case of ILAEAMSKA [Peptide 1516.09], the IC50 came to 72 nM at HLA-A*0201 (HLA-A2.1), 3.5 nM on A*0202, 2.8 nM at A*0203 and 2650 nM against A*6802.
In the same order, the values of KLLSKLLCV [Peptide 1578.03] are 55 nM, 68 nM, 36 nM and greater than 20000 nM.
Turning to LLLVHNLPQHV [Peptide 9013.0275], the IC50 at HLA-A*0201 (HLA-A2.1) was 4820 nM; against A*0203, 652 nM; against A*0206 it was 5140 nM; against A*6802 it was greater than 20000 nM.
Consider LLFWNPPTT [Peptide 9013.0007], for which the IC50 on HLA-A*0201 (HLA-A2.1) was 11 nM; at A*0202, 15 nM; against A*0203, 4.3 nM; at A*6802, greater than 20000 nM.
TLGIMIGVL [Peptide 9013.0108]: the IC50 against HLA-A*0201 (HLA-A2.1) was 7420 nM; at A*0203, 1700 nM; against A*0206, 9060 nM; at A*6802, greater than 20000 nM.
In the case of VLYGPDAPV [Peptide 9013.0052], the IC50 against HLA-A*0201 (HLA-A2.1) came out at 48 nM; against A*0202 it was 2.4 nM; against A*0203, 19 nM; at A*6802 it was 3260 nM.
In the same order, the values of AIFGVNPTI [Peptide 86.0178] are 1820 nM, 13 nM, 324 nM and 3540 nM.

Broadly, the IC50 is the concentration needed to halve the response being measured.
